Data set [1] in a line: Compressibility testing of API (bulk/tapped volume, compressibility index). In kind it is physicochemical. The note with it: API batches; for Compressibility index: (Vb−Vt)/Vb; for Flow character according to PhEur: PhEur Chapter 2.9.36 Powder flow. As for the experimental part: As described in Example 8 herein above, the sodium salt of dolutegravir was prepared in two polymorphic forms (Form I and form HxA). […] Compressibilty index is an indirect measure of different powder properties such as size, shape, surface area, cohesiveness etc. (PhEur). Bulk (Vb) and tapped (Vt) volume were measured for several batches of both forms and the compressibilty index (%) is determined based on Vb and Vt. 250 mL volumetric cylinder with test samples weight approximately 25 g were used. The compressibility index was calculated according to formula ((Vb−Vt)/Vb).

Data set [2] is described as follows: Particle morphology by scanning electron micrograph. In kind it is physicochemical. The note with it: SEM. The text has this: A figure of the morphology of Form I and form HxA is depicted in FIG. 13 (Form I) and 14 (form HxA), at different magnifications (500× magnification (Form I), 1.500× magnification (Form I and form HxA), and 5.000× magnification (form HxA)).

A short description of data set [3]: Gravimetric moisture sorption/desorption (GMSD) experiments. The class given is physicochemical. The note with it: 25±0.1° C. As for the experimental part:
Comparative gravimetric moisture sorption/desorption experiments at 25±0.1° C. were conducted with dolutegravir sodium monohydrate of WO 2010/068253 A1 and the hydrates of the present invention designated form HxA and form Hy1B.
The water values at varying relative humidities were obtained by recording moisture sorption/desorption isotherms with a SPS-11 moisture sorption analyzer (MD Messtechnik, Ulm, D). The samples were weighed into Teflon sample holders. […] The equilibrium condition for each step was set to a mass constancy of ±0.005% over 60 min. The temperature was 25±0.1° C. The water content of the samples was determined after the moisture sorption/desorption experiments with a TGA 7 system (Perkin Elmer, Norwalk, Conn., USA) using the Pyris 2.0 software. The samples were weighed into Al pans (50 μL). Dry nitrogen was used as purge gas (purge rate: 20 mL/min). The samples were heated from 25 to 200° C. using a heating rate of 10° C./min.

Data set [4] in a line: API particle size by laser diffraction.
The mark [5] stands for this setting: listed as dolutegravir sodium monohydrate of WO 2010/068253 A1.
The mark [6] stands for this setting: 95% RH, listed as dolutegravir sodium monohydrate of WO 2010/068253 A1.

SMILES strings stand for the structures. “And” between values parts separate entries of the source, which are not always exact repeats. Identical values can stand only once. “Also recorded” adds a separate entry of the source.

As for `C[C@@H]1CCO[C@H]2Cn3cc(C(=O)NCc4ccc(F)cc4F)c(=O)c([O-])c3C(=O)N12.[Na+]` [Form HxA, sodium (4R,12aS)-9-((2,4-difluorobenzyl)carbamoyl)-4-methyl-6,8-dioxo-3,4,6,8,12,12a-hexahydro-2H-pyrido[1′,2′:4,5]pyrazino[2,1-b][1,3]oxazin-7-olate], in data set [1], the Bulk volume was 4.02 mL/g and 2.88 mL/g and 3.30 mL/g and 2.89 mL/g; the Tapped volume is 2.86 mL/g and 2.14 mL/g and 2.60 mL/g and 2.25 mL/g; the Compressibility index was 29% and 26% and 21% and 22%; the “Flow character according to PhEur” value is “Poor and Passable”. Moreover, in data set [1] (listed as HxA form), the Compressibility index is 22-29% and the “Flow character according to PhEur” value is recorded as ““poor” to “passable””. For the same compound, in data set [2], the morphology of particles entry was “thin-plate like morphology” and the “particle sizes (primary particles)” value is recorded as “about 5 μm”. Besides, the morphology of particles entry in data set [2] (listed as HxA form) was “thin-plate like morphology”. Besides, in data set [3], the “Remarks: hysteresis between sorption and desorption isotherms” value is on record as “no significant hysterises”; the “Remarks: stable at / preserves crystal structure (RH range)” value is listed as “stable at 0-95% RH”; the “Remarks: structural changes” value was “no structural changes observed”; the “Δm sorption [0-90% RH]” value was “+3.4%”. Further, the “Δm sorption [30-90% RH]” value in data set [3] was “+2.5%”. Further, in data set [3] (listed as form HxA), the “Remarks: hysteresis between sorption and desorption isotherms” value is “absence of a hysteresis”; the hygroscopicity result is listed as “significantly less hygroscopic than the monohydrate of WO 2010/068253 A1”. Also, in data set [3] (95% RH), the maximum water content entry was “about 3.8%” and the “mol of water per mol of dolutegravir sodium” value is given as 0.9 mol of water per mol of dolutegravir sodium. Also, in data set [3] (95% RH, listed as form HxA), the maximum water content turned out to be 3.9%. In data set [3] (about 30% RH), the “mol of water per mol of dolutegravir sodium” value is on record as 0.2 mol of water per mol of dolutegravir sodium and the water content entry is given as “about 0.9%”. In addition, the “mol of water per mol of dolutegravir sodium” value in data set [3] (about 70% RH) is listed as 0.7 mol of water per mol of dolutegravir sodium. In data set [4], this compound gave a d0.1 of 1.3 μm, a d0.5 of 3.1 μm and a d0.9 of 7.4 μm. Moreover, in data set [4] (achieved with crystallization only), the Particle size result is “below 10 μm”.

As for `C[C@@H]1CCO[C@H]2Cn3cc(C(=O)NCc4ccc(F)cc4F)c(=O)c([O-])c3C(=O)N12.[Na+]` [MH of WO 2010/068253, reference compound], in data set [3], the “Remarks: dehydration below” value was “dehydration below 30% RH,”, the “Remarks: hysteresis at (RH range)” value is on record as “hysterises at 40-95% RH”, the “Remarks: stable at / preserves crystal structure (RH range)” value was “stable at 30-60% RH,” and the “Δm sorption [0-90% RH]” value is “+14.0%”. Further, in data set [3], the “Δm sorption [30-90% RH]” value is “+10.7%”. Also, in data set [3] (setting [5]), the “Remarks: dehydration below” value is listed as “Below 30 % RH” and the hygroscopicity entry is given as “very hygroscopic”. Moreover, in data set [3] (setting [6]), the maximum water content entry is reported as “about 21.8%” and the “mol of water per mol of dolutegravir sodium” value is given as 5.6 mol of water per mol of dolutegravir sodium.

Regarding `C[C@@H]1CCO[C@H]2Cn3cc(C(=O)NCc4ccc(F)cc4F)c(=O)c([O-])c3C(=O)N12.[Na+]` [Form Hy1B, sodium (4R,12aS)-9-((2,4-difluorobenzyl)carbamoyl)-4-methyl-6,8-dioxo-3,4,6,8,12,12a-hexahydro-2H-pyrido[1′,2′:4,5]pyrazino[2,1-b][1,3]oxazin-7-olate], in data set [3], the “Remarks: hysteresis between sorption and desorption isotherms” value was “absence of a significant hysteresis; also recorded: no significant hysterises”; the hygroscopicity entry was “significantly less hygroscopic than the monohydrate of WO 2010/068253 A1”; the “Δm sorption [0-90% RH]” value was “+4.8%”; the “Δm sorption [30-90% RH]” value was “+2.4%”. For the same compound, the “mol of water per mol of dolutegravir sodium” value in data set [3] (90% RH) was 1.3 mol of water per mol of dolutegravir sodium.

With `C[C@@H]1CCO[C@H]2Cn3cc(C(=O)NCc4ccc(F)cc4F)c(=O)c([O-])c3C(=O)N12.[Na+]` [Form I, reference compound], in data set [1], the Bulk volume was 5.55 mL/g and 7.00 mL/g and 4.89 mL/g; the Tapped volume is 3.79 mL/g and 4.56 mL/g and 3.23 mL/g; the Compressibility index was 32% and 35% and 34%; the “Flow character according to PhEur” value is “Very poor”. Moreover, in data set [2], the morphology of particles entry is recorded as “long needle like crystals” and the needle lengths is recorded as no more than 70 μm. In data set [4], this compound showed a d0.1 of 3.5 μm, a d0.5 of 10 μm and a d0.9 of 40 μm.

The record behind these values is patent US10189860B2, “Hydrates of dolutegravir sodium” (LEK PHARMACEUTICALS D.D., priority 2014, dated 2019).
